From patent US7879792B2, “Synthetic peptide inhibitors of thrombin and thrombin activation of protease activated receptors 1 and 4” (The Regents of the University of Michigan, priority 2005, dated 2011)
Where a SMILES comes first, the peptide text is derived from it.

Test: stability testing in intestinal homogenate
Assay type: in vitro ADME
Settings: rat
Procedure: Stability testing of the various compounds was performed in buffer, intestinal perfusate, and an intestinal homogenate preparation to assess the potential oral availability of these compounds. Initial studies prepared the tissue for stability studies. The buffer used in stability testing is 10 mM MES (pH 6.5) containing 135 mM NaCl, and 5 mM KCl. To collect intestinal perfusate from rats, male Sprague Dawley rats, 8 to 10 weeks old, weighing 250 to 350 g were fasted 15 to 18 hours with water given ad libitum. Anesthesia was administered by intramuscular injection of pentobarbital/ketamine (40 mg/kg and 80 mg/kg, respectively). The rats were placed on a warming pad under a surgical lamp to maintain body temperature and jejunal intestinal segments were exposed through a midline, abdominal incision. Approximately 20 cm segment of the jejunum (2 to 4 cm distal to the ligament of Treitz) was cannulated and the intestinal segments were perfused with 10 mM MES (pH 6.5) containing 135 mM NaCl, and 5 mM KCl at a flow-rate of 0.5 ml/min at 37° C. using a constant infusion pump (Harvard Apparatus, South Natick, Mass.). The collected perfusate was stored at −80° C. until use for ex vivo stability studies. After collection, the perfused intestinal segments were flushed with ice-cold 0.15 M KCl solution and the animal was euthanized and the jejunal intestinal segment detached. The inner intestinal tissue layers are scraped out and homogenized in MES buffer (pH 6.5) in a ratio of 1 part of intestinal tissue to 5 parts buffer. Total protein content of the perfusate and the homogenate were determined using a Biorad protein assay kit. The intestinal homogenate samples were used immediately or rapidly frozen at −80° C. until stability analysis.
The actual stability testing protocol is as follows: A 0.1 ml aliquot of the synthetic peptide solution (1 mg/ml) was added to 0.9 ml of MES buffer, pH 6.5, intestinal perfusate, or intestinal homogenate at 37° C. Samples were mixed by vortexing and 100 microliter aliquots were removed over a 60 to 90 minute period for analysis of breakdown products. The 100 microliter sample aliquots were diluted 10 fold with water and subjected to solid phase extraction using a Waters Oasis HLB column. Briefly, the columns were preconditioned by passing 1 ml of MeOH and 1 ml of water over the column, and 1 ml of sample was added to the column. The column was washed with 5% methanol:95% water solution to remove proteins and salts, then eluted with 1 ml of 100% methanol. The methanol was removed by vacuum, and the sample was reconstituted in mobile phase for LC/MS/MS analysis.
LC/MS/MS analysis was performed on a HP1100 HPLC (Hewlett Packard) interfaced with a Quattro II MS/MS detector (Waters/Micromass). For the HPLC separation, a 10 μL aliquot of sample in a mobile phase consisting of an equal volume mixture of acetonitrile/water containing 0.5% formic acid was injected onto a 150 mm×2.2 mm, 5 μm C8 column (Higgins Analytical Inc) and developed at a flow rate of 0.2 ml/min for 5 minutes. The MS detector was used in single ion recording mode at a cone voltage of 50 Volts.

SMILES: N=C(N)NCCC[C@@H](N)C(=O)N1[C@H](C(=O)N2CCC[C@H]2C(=O)NCC(=O)N[C@@H](Cc2ccccc2)C(N)=O)C[C@@H]2CCCC[C@@H]21 [rOicPGF, D-Arg-Oic-Pro-Gly-Phe, reference compound] (HELM PEPTIDE1{[dR].[O=C([C@@H]1C[C@@H]2CCCC[C@@H]2N1[*:1])[*:2]].P.G.F.[am]}$$$$V2.0)
- half-life at 0.1 mg/ml (male, Sprague Dawley, intestinal homogenate, pH 6.5, 37° C., read-out: t1/2 (min) Intestinal Homogenate): 40.3 min
- stability in intestinal homogenate (FIG. 12): less stable
